In US20080206347A1, “Pharmaceutical Formulations Comprising Active Pharmaceutical Principles Adsorbed on Titanium Dioxide Nanoparticles” (FLAMMA S.P.A., priority 2005, published 2008):
“And” between values parts separate entries of the source, which are not always exact repeats. Identical values can stand only once. Like-named read-outs stand apart in the source and are kept apart here.

Legend:
[1] = Desorption of Sodium Risedronate from TiO2 in aqueous solution at different pH; assay type: physicochemical; conditions: for amount released, % of the initial concentration on TiO2: pH=8, 25° C.
Description: Desorption of Sodium Risedronate from TiO2 at 25° C. was studied in aqueous solution at different pH values.
The desorption as function of time of Sodium Risedronate from TiO2 was studied in aqueous solution at pH 9 and at 36° C.
(§1) To an aqueous solution containing 625 mg of Sodium Risedronate in 100 ml of deionized water 3.00 g of TiO2 was added. The suspension was stirred for 72 h at room temperature and then centrifuged at 4000 rpm for 10 min. The solid was suspended twice in a pH 1 HCl solution, stirred for 20 min and centrifuged. The solid was finally dried at 40° C. under vacuum.
Nine separate 30 mg portions of TiO2 adsorbed with Sodium Risedronate were suspended in 10 ml of pH 9 NaOH solutions and left stirring for different times in the range 1-120 min. During drug desorption the pH of the suspension was kept at the original value by small addition of NaOH solution. In all cases the concentration of desorbed drug was corrected for volume changes.

[2] = in vivo; cited from earlier work
[3] = Adsorption of drug on TiO2 nanoparticles; assay type: physicochemical
Description: To a stirred solution of Sodium Risedronate (625 mg) in deionized water (100 ml) increasing amounts of nanocrystalline TiO2 were added (ca. 20 nm nanoparticle size). […] This limit probably corresponds to a total surface coverage of the nanoparticles.
190 mg of Sodium Risedronate were adsorbed at 25° C. on 3.00 g of TiO2 nanoparticles having an average diameter of 20-25 nm.
as §1
(§2) A NMR-based method was developed since alendronate lacks the chromophoric group of risedronate. The NMR experiments were carried out in H2O instead of D2O (or other deuterated solvents) simply using the aqueous solutions obtained after removal of TiO2 by centrifugation without concentration or further treatment. Only a small amount of C6D6 in a sealed capillary tube (reusable) inserted into the NMR tube was required to achieve the field lock. […] To determine the concentration of sodium alendronate in aqueous solutions, a known amount of an internal standard was added before each NMR measurements, namely 1,3,5-triaza-7-phospha-adamantane, a water-soluble phosphine.
TiO2 (25 nm, 1.00 g) was added to a solution of Sodium Alendronate trihydrated (207 mg, 0.64 mmol) in H2O (50 ml) and the resulting suspension (pH 4.5) was vigorously stirred in the dark at 25° C. for 48 h, then centrifuged (4,000 rpm, 5 min). The cloudy supernatant was recovered, treated with solid NaCl (ca. 3 g), kept at room temperature for 2 h, and centrifuged (4,000 rpm, 5 min). To the resulting solution was added 1,3,5-triaza-7-phospha-adamantane and the concentration of residual sodium alendronate was estimated by ^31P-NMR as described above.

[4] = Description: as §2
Sodium Alendronate trihydrated was adsorbed on TiO2 as described above. After centrifugation, the recovered solid was dried at 40° C./0.1 mbar for 6 h. A suspension of this solid in 50 ml of aqueous HCl (pH 1.0) or NaOH (pH 9.0) was vigorously stirred at the stated temperature in a nitrogen atmosphere. The pH of the basic solution was constantly monitored and maintained at the initial level by addition of 0.05 M NaOH.

[5] = 250 mg of TiO2 carrying 16 mg of drug
[6] = 1.00 g TiO2 (25 nm), 24 h stirring, 25° C.

Structure (SMILES) | amount of drug released in the intestine [1, 5] [mg] | release in the gastroesophageal region [1, 5] | adsorbed drug desorbed ([1]; pH 9, 36° C., after 1 minute) [%] | amount of drug released ([1]; pH 9, 36° C., in the next 60 min) [%] | amount of drug released ([1]; pH 9, 36° C., longer times (up to 120 min), constant) [%] | amount released, % of the initial concentration on TiO2 ([1]; after 30 min) [%] | amount released, % of the initial concentration on TiO2 ([1]; after 2 hours) [%] | oral bioavailability [2] [%] | amount of drug which can be adsorbed on the surface of the nanocrystalline substrate ([3]; 625 mg in 100 ml deionized water, increasing amounts of TiO2 ca. 20 nm, limit value) [%] | amount adsorbed on TiO2 ([3]; on 3.00 g of TiO2 nanoparticles (20-25 nm), 25° C./room temperature, from 625 mg) [mg] | release to the intestine [4, 5] [mg] | Desorption ([4]; pH 1.0, 2 h stirring at 25° C.) | Desorption ([4]; pH 9.0, 30 min stirring at 25° C.) [%] | Desorption ([4]; pH 9.0, 2 h stirring at 25° C.) [%] | Desorption ([4]; pH 9.0, 6 h stirring at 37° C.) | amount adsorbed on TiO2 ([3]; 1.00 g TiO2 (25 nm), 207 mg in 50 ml H2O, 48 h stirring, 25° C.) [mg] | amount adsorbed on TiO2 [3, 6] [mg] | amount adsorbed, % of the initial amount [3, 6] [%] | amount adsorbed, % of the initial amount ([3]; 1.00 g TiO2 (25 nm), 48 h stirring, 25° C.)
O=P(O)(O)C(O)(Cc1cccnc1)P(=O)(O)O [Sodium Risedronate] | 6 to 9 | negligible release | 25 | 36 | 36 | ~35 | 35 | 0.63 | 31 | 190 |  |  |  |  |  |  |  |  | 
NCCCC(O)(P(=O)(O)O)P(=O)(O)O [Sodium Alendronate] |  |  |  |  |  |  |  |  |  |  | 4 | not detected | 8 | 12 | 22% and 16-22% | 71 | 66 | 32 | 34% and 26-34%
